Results reported in patent publication US11925645B2, “Enhanced caffeinated beverage composition” (Ortho-Nutra, LLC, priority 2013, dated 2024).
Where two headings read alike, the source gives them in different places. Blank lines part the entries; values can stand above or below the compound they belong to.

Legend:
[1] = Theacrine-caffeine interaction study: heart rate, blood pressure, rate pressure product, tolerability; settings: at the doses tested, administered alone or in combination
Description: (§1) Study Design and Procedures. […] Theacrine, administered as iTeaCrine.®, was provided by Compound Solutions (Carlsbad, Calif). […] Treatment sequence was randomized using a 4×4 Latin square. There was an approximate 1-week washout period between treatments for all subjects.
(§2) Test Visit Procedures. […] A catheter was inserted into the forearm vein for blood sampling. Duplicate measurements of resting heart rate and blood pressure were taken pre-dose and prior to each timed blood sample. In addition, respiratory rate was counted in one minute and body temperature was measured using an ear scanning thermometer (dual readings taken at each time).
Differences between treatment group values were determined for systolic blood pressure (SBP), diastolic blood pressure (DBP), rate pressure product, and heart rate. Parametric data were analyzed by paired Student's t tests of mean differences in values between treatment groups. Statistical significance was defined a priori as a 2-sided or <0.05.

[2] = Fourteen day study of repetitive dosing of theacrine and caffeine: psychometric indices; format: in vivo, human
[3] = Single dose theacrine, caffeine or combination: subjective feelings on 10 cm visual analog scale; format: in vivo, human
Method: Subjects rated their subjective feelings using a 10 cm visual analog scale at 30 minutes, 1, 2, 3, 4, and 5 hours post ingestion and performed the trail making test (TMT) of cognitive performance at baseline and at hours 2 and 4 post ingestion.

[4] = Theacrine-caffeine interaction study: single oral dose plasma pharmacokinetics (LC-MS/MS, noncompartmental); format: in vivo, human
Description: Theacrine pharmacokinetics in humans has not been systematically characterized. Therefore, one purpose of this study, among others, was to determine theacrine pharmacokinetics and dose-linearity following oral administration in humans.
Eight healthy nonsmokers, including 4 men and 4 women, were recruited for the experiment.
as §1, §2
All subjects were instructed to consume their usual diet throughout the study period, with the exception of the actual days of testing. During the two days prior to each test day, subjects recorded all food and drink consumed and attempted to mimic this intake for the two-day period prior to subsequent visits. Diet records were analyzed using nutrient analysis software (Food Processor SQL, version 9.9; ESHA Research, Salem, Oreg.). For the actual test days, standardized meals (meal replacement food bars [Clif “Builder's 20 g Protein Bar”] and ready-to-drink shakes [Orgain Organic Nutrition™]) were provided to the subjects after sample collection at hour 2 and hour 6 (one shake and one-half bar at each time). Subjects were also provided with adequate meal replacement bars and shakes to consume following the 8 hour sample collection. (during their time outside the lab). Each bar contained 280 calories, 10 grams of fat, 29 grams of carbohydrate, and 20 grams of protein. Each shake contained 250 calories, 7 grams of fat, 32 grams of carbohydrate, and 16 grams of protein. No food other than what was provided to the subjects was allowed during each study day, including both time spent in the lab and outside the lab. […] The subjects returned the following morning for the 24 hour blood collection, again in a 10 hour fasted state. The same volume of meal replacement bars or shakes was consumed by each subject during each visit (both in lab and outside lab).
Pharmacokinetic Study. Plasma concentration-time data were evaluated using noncompartmental methods in Phoenix WinNonlin (version 7.0; Pharsight Corporation, Mountain View, Calif) with adjustment for lag time after oral administration. The maximum concentration (Cmax), lag time (talag), and time of maximum concentration (tmax) were determined from the plasma concentration versus time data. The area under the plasma concentration-time curve from time 0 to infinity (was calculated using the trapezoidal rule extrapolated to time infinity). […] The oral clearance (CL/F) was calculated by dividing the oral dose by AUC0-∞. The apparent volume of distribution during the terminal elimination phase (Vz/F) was calculated by dividing CL/F by k. […]

[5] = from baseline to 2 hours post-ingestion
[6] = both sexes, human, in vivo, 150 mg

Structure (SMILES): Cn1c(=O)c2c(ncn2C)n(C)c1=O [Caffeine, caffeine, reference compound]
effect on baseline hemodynamic parameters, e.g. heart rate and blood pressure [1]: no effect | anxiety [2]: increased anxiety scores | psychometric indices of energy, focus, concentration, motivation and mood [2]: decreasing levels of energy, focus and concentration by Day 5 | self-reported motivation to exercise ([3]; caffeine 150 mg, 125 mg theacrine and 150 mg caffeine): significantly increased | motivation to exercise [3, 5]: significantly increased | sense of energy [3, 5]: significantly increased | subjective focus [3, 5]: significant increase | MRT [4, 6]: 8.4 ± 4.3 h | half-life [4, 6]: 6.2 ± 3.8 h | Vd/F ([4]; both sexes, human, in vivo, 150 mg, Vd/F): 33.5 ± 13.7 L | dose-adjusted Cmax ([4]; both sexes, human, in vivo, po, 150 mg): 33.4 ± 9.5 ng/mL/mg | caffeine pharmacokinetics following caffeine alone or caffeine plus theacrine co-ingestion ([4]; caffeine 150 mg vs theacrine 125 mg + caffeine 150 mg): similar | AUC ([4]; human, in vivo, 150 mg): 262.0 ± 74.1 ng·h/mL/mg | CL/F ([4]; human, in vivo, 150 mg): 4.1 ± 1.1 L/h

Tmax ([4]; both sexes, human, plasma, oral, 150 mg): 5 h | dose-adjusted Cmax ([4]; both sexes, human, plasma, oral, 150 mg, paraxanthine in plasma, Condition 3: Caffeine 150 mg, dose-adjusted, mean ± SD): 7.3 ± 1.5 ng/mL/mg | MRT ([4]; both sexes, human, plasma, oral, 150 mg, read-out: MRT): 19.1 ± 18.6 h | half-life ([4]; both sexes, human, plasma, oral, 150 mg, read-out: t1/2 (converted)): 12.5 ± 12.7 h | dose-adjusted Cmax ([4]; both sexes, human, plasma, oral, paraxanthine in plasma, Condition 4: Theacrine 125 mg + Caffeine 150 mg, dose-adjusted, mean ± SD): 8.4 ± 3.5 ng/mL/mg | AUC ([4]; paraxanthine in plasma, Condition 3: Caffeine 150 mg, dose-adjusted, mean ± SD): 174 ± 152 ng·h/mL/mg | AUC ([4]; paraxanthine in plasma, Condition 4: Theacrine 125 mg + Caffeine 150 mg, dose-adjusted, mean ± SD): 209 ± 202 ng·h/mL/mg
Structure (SMILES): Cn1c(=O)[nH]c2ncn(C)c2c1=O [Paraxanthine, paraxanthine]
